# Assay results: US20250011322A1, “MEDICAL COMPOUND FOR THE INHIBITION OF ALDEHYDE DEHYDROGENASE SUBTYPE 1A” (Theranib Inc., priority 2023, published 2025)
# “Also recorded” adds a separate entry of the source.
# Key:
# ALDH1A3 = molecular target: T1, ALDH1A3 (Homo sapiens, UniProt P47895); assay: Aldefluor test in MDA-MB-231 cells overexpressing ALDH1A3; assay type: cell-based; settings: for IC50: Aldefluor test; for Inhibition of ALDH1A3-induced Aldefluor activity: dilution series of compound
# T1 construct: expressed in transfected cells; host or cells: MDA-MB-231
# T1 sequence (P47895 1-512): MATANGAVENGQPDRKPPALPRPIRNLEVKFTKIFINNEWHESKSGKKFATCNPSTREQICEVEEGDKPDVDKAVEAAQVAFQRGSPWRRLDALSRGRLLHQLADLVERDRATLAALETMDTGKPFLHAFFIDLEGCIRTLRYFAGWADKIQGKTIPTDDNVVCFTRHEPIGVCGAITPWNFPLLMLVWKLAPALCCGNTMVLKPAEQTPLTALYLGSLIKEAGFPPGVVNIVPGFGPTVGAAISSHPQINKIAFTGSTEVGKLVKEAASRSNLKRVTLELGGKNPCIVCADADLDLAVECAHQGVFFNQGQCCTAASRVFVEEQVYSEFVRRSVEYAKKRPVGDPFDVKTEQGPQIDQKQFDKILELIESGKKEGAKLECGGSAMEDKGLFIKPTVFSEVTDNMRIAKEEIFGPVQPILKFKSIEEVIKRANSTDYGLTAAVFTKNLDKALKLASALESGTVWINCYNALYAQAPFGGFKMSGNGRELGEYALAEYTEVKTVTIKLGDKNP
# Procedure: (§1) In vitro assays were conducted on breast cancer cell lines MDA-MB-231, MDA-MB-468, and HCC1806 cells. Specifically, the MDA-MB-231 cell line, characterized by a low expression of ALDH1A, was used as such or after being engineered to overexpress the ALDH1A1 or ALDH1A3 isoform, while the MDA-MB-468 and HCC1806 cell lines, characterized by a high expression of ALDH1A3 were used as such or after being knocked down for the ALDH1A3 isoform (FIG. 1). […] The experiments were conducted using the Aldefluor® test, specific for aldehyde dehydrogenases.
# MDA-MB-231 tumors = assay: Orthotopic MDA-MB-231 xenograft (native or ALDH1A3-overexpressing) in NOD/SCID mice; assay type: in vivo; settings: for RARB level in tumors (pharmacodynamic analysis): ALDH1A3-overexpressing MDA-MB-231 tumors harvested day 41, treatment from day 15
# Procedure: (§2) In vivo experimentation then ensued. The in vivo assays were conducted using eight-week-old female NOD/SCID mice orthotopically injected with 2×10^6 native or ALDH1A3-overexpressing MDA-MB-231 cells. 60 female NOD-SCID mice had approximately 2,000,000 MDA-MB-231 cells injected into a 5th mammary fat pad. 30 mice were injected with MDA-MB-231 bearing a vector control (Groups 1-3), and 30 mice were injected with MDA-MB-231 bearing an ALDH1A3 overexpression vector (Groups 4-6). On day 15 of inoculation, the treatment phase began. Groups 1 and 4 (n=10, 10 respectively) received saline i.p. injections 100 uL every day for 26 days. Groups 2 and 5 (n=10, 10) received 0.4 mg/kg drug i.p. in 100 uL saline every day for 26 days. Groups 3 and 6 (n=10, 10) received 4.0 mg/kg drug i.p. in 100 uL saline every day for 26 days. Caliper measurements of tumors and body weights were taken throughout the treatment phase. After 26 days, all mice were euthanized, the tumors were harvested, and blood was drawn for analysis.
# On day 15, the animals were treated with compound 1, administered daily intraperitoneally at a concentration of 0.4 mg/Kg or 4 mg/Kg, then constantly monitored for body weight increase (FIG. 7) and tumor volume (FIG. 8). Once the tumors became palpable, we started treatment of the animals (day 15). After 26 days of treatment, the animals were sacrificed and the tumors were collected and evaluated for size (FIGS. 8 and 9) and weight (FIG. 10).
# [1] = test system: ALDH1A3 target genes (RARB, DHRS3, ELF3, RARRES1); assay: Expression of ALDH1A3 target genes in breast cancer cell lines by QPCR; assay type: cell-based; settings: 24 hours of treatment; for Expression of ALDH1A3 target genes in ALDH1A3-expressing lines: ALDH1A3-overexpressing MDA-MB-231, MDA-MB-468 and HCC1806 cells; for Expression of ALDH1A3 target genes in native line: native MDA-MB-231 cells
# Procedure: FIGS. 5A, 5B, 5C. […] Expression of DHRS3, RARB, ELF3, and RARRES1 in MDA-MB-231 cells with ALDH1A3 overexpression (FIG. 5A), MDA-MB-468 cells (with ALDH1A3 shRNA knockdown as control, FIG. 5B), and HCC1806 (with ALDH1A3 shRNA knockdown as control, FIG. 5C) is determined 24 hours after treatment with 0, 1, 10, or 100 nM compound 1 by QPCR. Significance determined by one-way Anova, p-value […], <0.01=**, <0.001=***, <0.0001=****.
# Subsequently, to confirm the direct inhibitory activity of the tested compounds on the enzymatic isoform of interest, their effect on the expression of ALDH1A3 target genes, and in particular of RARB, DHRS3, ELF3, and RARRES1, was investigated in the aforementioned cell lines.
# [2] = Toxicity readouts in the xenograft study: body weight, serum ALT, serum creatinine; assay type: in vivo, mice
# Procedure: as §2
# This is evidenced by the trend over time of their body weight (FIG. 7) and also the analysis of alanine aminotransferase (ALT) and creatinine levels in serum collected from terminal animals (FIGS. 12A and 12B).
# ALDH1A1 = molecular target: T2, ALDH1A1 (Homo sapiens, UniProt P00352); assay: Aldefluor test in MDA-MB-231 cells overexpressing ALDH1A1; assay type: cell-based
# T2 construct: expressed in transfected cells; host or cells: MDA-MB-231
# T2 sequence (P00352 1-501): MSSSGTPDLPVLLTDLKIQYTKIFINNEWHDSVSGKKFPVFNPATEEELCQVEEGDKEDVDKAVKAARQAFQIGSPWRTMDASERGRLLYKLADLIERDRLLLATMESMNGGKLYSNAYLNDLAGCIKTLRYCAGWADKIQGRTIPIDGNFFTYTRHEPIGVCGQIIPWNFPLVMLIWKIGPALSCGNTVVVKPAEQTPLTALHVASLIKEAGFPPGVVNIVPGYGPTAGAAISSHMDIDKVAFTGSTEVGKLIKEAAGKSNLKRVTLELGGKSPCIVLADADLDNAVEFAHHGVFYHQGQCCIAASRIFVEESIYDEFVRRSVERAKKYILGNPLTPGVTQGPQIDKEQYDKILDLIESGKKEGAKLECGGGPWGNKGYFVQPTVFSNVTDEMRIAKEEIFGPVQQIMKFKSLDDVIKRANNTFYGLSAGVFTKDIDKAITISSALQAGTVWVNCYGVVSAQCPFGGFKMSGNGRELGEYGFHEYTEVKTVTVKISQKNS
# Procedure: as §1
# [3] = MDA-MB-231 cells overexpressing ALDH1A3
# [4] = MDA-MB-231 cells with ALDH1A3 overexpression
# [5] = daily treatment from day 15, measured on day 41, mice
Structure (SMILES),IC50 (ALDH1A3; [3]) [nM],Inhibition of ALDH1A3-induced Aldefluor activity (ALDH1A3; [4]),"Tumor growth (volume, weight) induced by ALDH1A3 (MDA-MB-231 tumors; 0.4 or 4 mg/Kg i.p. daily for 26 days from day 15, NOD/SCID mice)",RARB level in tumors (pharmacodynamic analysis) (MDA-MB-231 tumors),RARB level in tumors (pharmacodynamic analysis) (MDA-MB-231 tumors; listed as compound 1),Expression of ALDH1A3 target genes in ALDH1A3-expressing lines [1],Expression of ALDH1A3 target genes in native line [1],"Toxicity (overall) ([2]; daily i.p. 0.4 or 4 mg/Kg for 26 days, mice)","Serum alanine aminotransferase (ALT) [2, 5]","Serum creatinine [2, 5]","Body weight ([2]; mice injected with MDA-MB-231 cells, treatment from day 15)",Inhibition of Aldefluor assay activity of ALDH1A1 (ALDH1A1; 100 uM),Inhibition of Aldefluor activity induced by ALDH1A1 overexpression (ALDH1A1; all plotted concentrations),"Inhibition of Aldefluor assay activity of ALDH1A3 (ALDH1A3; 100 uM, MDA-MB-231 cells overexpressing ALDH1A3)","Amounts distinguishable from control counts in the plot of Aldefluor count (ALDH1A3; MDA-MB-231 cells with ALDH1A3 overexpression, all other concentrations not distinguishable from control) [µM]"
"CC(=O)c1ccc(-c2cc(-c3ccc(C(C)=O)cc3)c3nc(-c4ccccc4)cn3c2)cc1 [Compound 1, 1,1′-((2-phenylimidazo[1,2-a]pyridine-6,8-diyl)bis(4,1-phenylene))bis(ethan-1-one)]",1.9,inhibits Aldefluor activity,"reduce, in a statistically significant way, the increased tumor growth",reduces ALDH1A3-inducible RARB expression,significantly reduced RARB level,statistically significantly reduced the expression of the target genes; also recorded: specifically inhibit the expression of ALDH1A3 target genes,neither compound 1 nor compound 2 produced significant results,no detectable toxicity,does not affect,does not affect,No significant changes were observed,did not inhibit,does not inhibit Aldefluor activity,,
"CC(=O)c1ccc(-c2cc(-c3ccc(C#N)cc3)cn3cc(-c4ccccc4)nc23)cc1 [Compound 2, 4-(8-(4-acetylphenyl)-2-phenylimidazo[1,2-a]pyridin-6-yl)benzonitrile]",9.4,inhibits Aldefluor activity,,,,statistically significantly reduced the expression of the target genes,neither compound 1 nor compound 2 produced significant results,,,,,,,,
"CCN(CC)c1ccc(C=O)cc1 [DEAB, 4-Diethylaminobenzaldehyde, reference compound]",,,,,,,,,,,,,,inhibits,
"c1ccc(-c2ccc3nc(-c4ccccc4)cn3c2)cc1 [GA11, reference compound]",~100000,inhibit,,,,,,,,,,,,,100
